Data on eleven molecules can be found in US8883763B2 (Universite Joseph Fourier, priority 2010, dated 2014).

One data set deals with T1, PP1α (PP1CA) (Oryctolagus cuniculus, UniProt P62139).
T1 construct: purchased New England Biolabs P0754
Description: Protein phosphatase test (PP1 activity, DiFMUP fluorescent substrate). The data set is classed as biochemical. The settings on record: PP1CA at 80 mU, fluorescent substrate (50 μM), molecules from 50 μM to 50 nM; read-out: PP1 Inhibition IC50. The protocol:
FIG. 13 presents the graph showing the inhibition of the PP1Cα activity by compound 6 in vitro. PP1Cα (New England Biolabs, 30 mU/well) was incubated in the presence of compound 6 at different concentrations and a fluorescent substrate, diFMUP.
Determination of the 1050 was carried out with PP1CA at 80 mU in the presence of a fluorescent substrate
(50 μM) and different concentrations of molecules from 50 μM to 50 nM.
For the activity tests, PP1α (New England Biolabs # P0754) was used at a final concentration of 30 mU or 80 mU for the screening of all the analogues. 6,8-difluoro-4-methylumbelliferyl phosphate (DiFMUP, Invitrogen # D6567) was used as fluorescent substrate at a concentration of […]. All the tests were carried out in a final volume of 100 μl, at 37° C. in 96-microwell plates (Greiner #655096).
Compound 6, combretastatin A4 (CA-4) as well as all the analogues were diluted in 50 μl of PP1 buffer (100 mM Tris-HCl, pH 7.5, 4 mM DTT, 0.2 mM EDTA, 0.5 mM MnCl2) from 50 μM to 50 nM. Corresponding quantities of DMSO were added to control wells. PP1α (30 or 80 mU in 30 μl of PP1 buffer) was added to each well. After incubating for 15 minutes at AT, the substrate was added (in 20 μl of PP1 buffer). After incubating for 20 minutes at 37° C., the fluorescence was measured in a plate fluorometer at 355-460 nm in order to assay the phosphatase activity. The test was carried out three times in duplicate for each condition.

A further data set deals with HMEC cells. Nature of the data set: Proliferation of HMEC cells (GI50). The data set is classed as cell-based. The settings on record: Homo sapiens, 120 h, 50 μM to 1 nM for 5 days. How it is done:
The HMECs were seeded at 10% confluence and incubated with the molecules at different concentrations (from 50 μM to 1 nM) for 5 days. The GI50 (50% Growth Inhibition) defines the concentration inducing a 50% reduction in proliferation with respect to the control.

In another data set the test system is bovine brain tubulin. Description: In vitro tubulin polymerization test (turbidimetry at 350 nm). The data set is classed as biochemical. The settings on record: molecules at 50 μM, calculated at t=3000 s, DMSO control = 100%. The protocol:
Tubulin was purified from bovine brain using the polymerization-depolymerization process described by (Castoldi M and Popov A V. Protein Expr Purif. 2003, 32(1): pp 83-8).
The in vitro tubulin polymerization tests (at 50 μM) were carried out in the presence of GTP 1 mM in BRB80 buffer (80 mM K-PIPES pH 6.8, 1 mM MgCl2, 1 mM EGTA) at 37° C. The tests were carried out in 96-microwell plates (half-wells) (Costar plates, Corning #3695), in triplicate with a final volume of 70 μl. Tubulin assembly was carried out in the presence of compound 6 or its analogues (all used at a concentration of 50 μM) and was monitored by turbidimetry measurement at 350 nm using a spectrophotometer (Spectramax More, Molecular Devices).
Measurement of the effect of a molecule on polymerization was calculated at t=3000 s taking the value of the control at the same time as being equal to 100%.

The next data set relates to HeLa cells. Description: Indirect immunofluorescence: effect on HeLa cells (mitotic arrest, microtubule depolymerization). The data set is classed as cell-based, human. On the set-up: key to Effect on Hela at 25 μM / Effect on Hela at 100 μM / Effect on Hela at 50 and 100 μM / Effect on Hela at 50 μM: —: −: no activity on the cells at 25 μM (if there is an effect at high concentrations, this is specified in the table).; *: weak activity (MA and/or slight depolymerization of the MTs and/or slight inhibition of proliferation),; **: average activity (MA and/or moderate depolymerization of the MTs and/or moderate inhibition of proliferation),; ***: strong activity (MA and/or pronounced depolymerization of the MTs and/or pronounced inhibition of proliferation),; ****: very strong activity (MA and/or very pronounced depolymerization of the MTs and/or strong inhibition of proliferation). The settings on record: 24 hours; for Effect on Hela at 25 μM: mitotic index and/or depolymerization of the MTs. The protocol: The cells were cultured on slides in 24-well plates and incubated for 24 hours with molecule 6 at different concentrations from 1 to 10 μM.
Corresponding quantities of DMSO were added to the culture medium in the control wells.
The cells were fixed in a solution of PBS with 4% paraformaldehyde (PFA) and 0.1% glutaraldehyde (GA), for 15 minutes and centrifuged at 300 g for the last 10 minutes of the fixing. The slides were rinsed in PBS and the free aldehyde groups were reduced by two successive 5-minute incubations in PBS containing 1 mg/ml of NaBH4.
After one washing with PBS then another with PBST (PBS with 0.5% triton-X-100), the cells are incubated for 30 minutes at ambient temperature with anti α-tubulin monoclonal antibody solution (DM1A clone, Sigma # T6199) diluted to 1:200 in PBST. After 3 10-minute washings with PBST, the cells are incubated for 30 minutes at ambient temperature in a solution of goat anti-mouse polyclonal antibodies coupled with Alexa 488 (1:1000, Molecular Probes # A-11029) and phalloidin coupled with Texas red to label the actin (1:2000, Molecular Probes # T7471), in PBST also containing Hoechst 33258 (1 μg/ml) for labelling the DNA. After 3 10-minute washings in PBST, the slides are mounted on plates in Fluorsave™ mounting medium (Calbiochem #345789) and are observed and analyzed using an Axiovert 200M inverted fluorescence microscope (Zeiss®). The images are produced with a Plan-Apochromat 63× oil objective (Zeiss®) by means of a Coolsnap HQ camera (Roper Scientifics®) and with Metamorph acquisition software (Universal Imaging™ Corporation).
In order to evaluate the effect of the analogues of compound 6 on PHFs and HeLa cells, the immunofluorescence technique described above was used and adapted to a 96-well dish format. The cells were seeded in glass-bottomed 96-well dishes and incubated for 24 hours in the presence of different concentrations of molecules from 100 μM to 50 nM. And in the same way as described above, the cells were fixed and immunolabelled. Analysis of the phenotypes as well as counting the mitotic cells were carried out with the same microscope but using a ×40 objective (Olympus). The molecules were compared with each other with respect to the mitotic arrest induced on PHFs and HeLa cells at 25 and 0.3 μM.
The mitotic index and/or the depolymerization of the MTs were evaluated at 25 μM.

T1 sequence (P62139 whole entry): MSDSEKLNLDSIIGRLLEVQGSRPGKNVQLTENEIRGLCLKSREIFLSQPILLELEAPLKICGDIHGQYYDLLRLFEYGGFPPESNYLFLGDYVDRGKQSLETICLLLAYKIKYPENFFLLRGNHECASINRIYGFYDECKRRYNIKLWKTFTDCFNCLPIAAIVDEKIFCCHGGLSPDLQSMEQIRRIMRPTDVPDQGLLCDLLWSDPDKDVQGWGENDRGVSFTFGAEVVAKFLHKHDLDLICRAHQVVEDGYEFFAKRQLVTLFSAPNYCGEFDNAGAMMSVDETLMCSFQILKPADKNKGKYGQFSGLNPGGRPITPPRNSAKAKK

Molecule `COc1ccc(-c2cc3ccc(OC)cc3c(=S)[nH]2)cc1` [Compound 12, 7-Methoxy-3-(4-methoxyphenyl)isoquinoline-1(2H)-thione] gave a melting point of 188 to 190 °C. Moreover, the half-inhibitory concentration (IC50) at PP1α (PP1CA) was at most 9 µM. The GI50 with HMEC cells is 1 to 25 µM. Besides, the Tubulin polymerization inhibition result in the data set on bovine brain tubulin is “++ ((++) signifies that the molecule induces tubulin assembly inhibition in vitro comprised between 26 and 50% of the DMSO control.)”. Also, in the data set on HeLa cells, the “Effect on Hela at 25 μM” value was “—” and the “Effect on Hela at 100 μM” value is “*”.

`COc1ccc(-c2cc3ccc(OC)cc3c(S(=O)(=O)O)n2)cc1` [Compound 13, 7-methoxy-3-(4-methoxyphenyl)isoquinoline-1-sulphonic acid]: the melting point fell in the range of 226 to 228 °C. Besides, the concentration for half-maximal inhibition (IC50) at PP1α (PP1CA) was above 50 µM. Further, the 50% growth inhibitory concentration (GI50) in the data set on HMEC cells was above 50 µM. The Tubulin polymerization inhibition result in the data set on bovine brain tubulin was “++ ((++) signifies that the molecule induces tubulin assembly inhibition in vitro comprised between 26 and 50% of the DMSO control.)”. Besides, in the data set with HeLa cells, the “Effect on Hela at 25 μM” value is given as “—” and the “Effect on Hela at 100 μM” value is “*”.

Turning to `COc1ccc(-c2[nH]c(=O)c3cc(OC)ccc3c2Br)cc1` [Compound 15, 4-Bromo-7-methoxy-3-(4-methoxyphenyl)isoquinoline-1(2H)-one], the melting point was 240 to 242 °C. Further, the half-inhibitory concentration (IC50) at PP1α (PP1CA) is above 50 µM. Besides, the concentration for 50% growth inhibition (GI50) in the data set on HMEC cells fell in the range of 0.1 to 1 µM. Besides, the Tubulin polymerization inhibition result in the data set with bovine brain tubulin is “++ ((++) signifies that the molecule induces tubulin assembly inhibition in vitro comprised between 26 and 50% of the DMSO control.)”. The “Effect on Hela at 25 μM” value in the data set on HeLa cells was “***”.

`COc1ccc(-c2[nH]c(=O)c3cc(OC)ccc3c2I)cc1` [Compound 16, 4-Iodo-7-methoxy-3-(4-methoxyphenyl)isoquinoline-1(2H)-one] yielded a melting point of 216 to 218 °C. The IC50 at PP1α (PP1CA) was above 50 µM. This molecule displayed a GI50 in the data set with HMEC cells of 0.1 to 1 µM. Further, the Tubulin polymerization inhibition entry with bovine brain tubulin was “+++ ((+++) signifies that the molecule induces tubulin assembly inhibition in vitro of more than 50% with respect to the DMSO control.)”. Further, the “Effect on Hela at 25 μM” value with HeLa cells is recorded as “***”.

In the case of `COc1ccc(-c2nc(Cl)c3cc(OC)ccc3c2[N+](=O)[O-])cc1` [Compound 17, 1-Chloro-7-methoxy-3-(4-methoxyphenyl)-4-nitroisoquinoline], the melting point fell in the range of 196 to 198 °C. On PP1α (PP1CA), the half-inhibitory concentration (IC50) is above 50 µM. In addition, the GI50 with HMEC cells lay within 25 to 50 µM. For the same molecule, the Tubulin polymerization inhibition result in the data set on bovine brain tubulin was “++ ((++) signifies that the molecule induces tubulin assembly inhibition in vitro comprised between 26 and 50% of the DMSO control.)”. The “Effect on Hela at 25 μM” value in the data set with HeLa cells is listed as “—”.

In turn, `COc1ccc(-c2[nH]c(=S)c3cc(OC)ccc3c2[N+](=O)[O-])cc1` [Compound 18, 7-Methoxy-3-(4-methoxyphenyl)-4-nitroisoquinoline-1(2H)-thione] returned a melting point of 226 to 228 °C. Further, at PP1α (PP1CA), the IC50 fell in the range of 10 to 24 µM. In addition, the GI50 with HMEC cells was 1 to 25 µM. For the same molecule, the Tubulin polymerization inhibition entry in the data set with bovine brain tubulin is “+++ ((+++) signifies that the molecule induces tubulin assembly inhibition in vitro of more than 50% with respect to the DMSO control.)”. The “Effect on Hela at 25 μM” value in the data set on HeLa cells was “****”.

Take `COc1ccc(-c2nc(OC)c3cc(OC)ccc3c2[N+](=O)[O-])cc1` [Compound 19, 1,7-Dimethoxy-3-(4-methoxyphenyl)-4-nitroisoquinoline]: the melting point was in the range of 176 to 178 °C. Moreover, the 50% inhibitory concentration (IC50) at PP1α (PP1CA) fell in the range of 25 to 50 µM. Further, the GI50 in the data set with HMEC cells was above 50 µM. The Tubulin polymerization inhibition result in the data set on bovine brain tubulin was “+ ((+) signifies that the molecule induces tubulin assembly inhibition in vitro comprised between 6 and 25% of the DMSO control.)”. Besides, in the data set on HeLa cells, the “Effect on Hela at 25 μM” value was “—” and the “Effect on Hela at 100 μM” value was “**”.

`COc1ccc(-c2nc(Sc3ccccc3)c3cc(OC)ccc3c2[N+](=O)[O-])cc1` [Compound 20, 7-Methoxy-3-(4-methoxyphenyl)-4-nitro-1-(phenylethio)isoquinoline]: the melting point lay in the range of 169 to 171 °C. Also, the half-maximal inhibitory concentration (IC50) on PP1α (PP1CA) was 25 to 50 µM. The molecule further registered a 50% growth inhibitory concentration (GI50) in the data set on HMEC cells above 50 µM. In the data set with bovine brain tubulin, the Tubulin polymerization inhibition entry was “++ ((++) signifies that the molecule induces tubulin assembly inhibition in vitro comprised between 26 and 50% of the DMSO control.)”. Besides, in the data set on HeLa cells, the “Effect on Hela at 25 μM” value is “—”. Further, in the data set on HeLa cells (50 and 100 μM), the “Effect on Hela at 50 and 100 μM” value is listed as “*”.

As for `COc1ccc(-c2nc(N)c3cc(OC)ccc3c2[N+](=O)[O-])cc1` [Compound 71, 1-Amino-7-methoxy-3-(4-methoxyphenyl)-4-nitroisoquinoline], the concentration for half-maximal inhibition (IC50) on PP1α (PP1CA) is above 50 µM. This molecule returned a 50% growth inhibitory concentration (GI50) with HMEC cells of 25 to 50 µM. In the data set with bovine brain tubulin, the Tubulin polymerization inhibition entry was “+ ((+) signifies that the molecule induces tubulin assembly inhibition in vitro comprised between 6 and 25% of the DMSO control.)”. In addition, the “Effect on Hela at 25 μM” value with HeLa cells is recorded as “—”.

With `COc1ccc2c([N+](=O)[O-])c(-c3ccc(O)cc3)[nH]c(=O)c2c1` [Compound 72, 3-(4-hydroxyphenyl)-7-methoxy-4-nitroisoquinolin-1(2H)-one], the 50% inhibitory concentration (IC50) on PP1α (PP1CA) was 10 to 24 µM. Besides, the 50% growth inhibitory concentration (GI50) with HMEC cells was in the range of 0.1 to 1 µM. Besides, in the data set with bovine brain tubulin, the Tubulin polymerization inhibition entry was “++ ((++) signifies that the molecule induces tubulin assembly inhibition in vitro comprised between 26 and 50% of the DMSO control.)”. Besides, the “Effect on Hela at 25 μM” value in the data set with HeLa cells is listed as “****”.

For `COc1ccc2c([N+](=O)[O-])c(-c3ccc(OC(=O)OC(C)(C)C)cc3)[nH]c(=O)c2c1` [Compound 73, tert-butyl 4-(7-methoxy-4-nitro-1-oxo-1,2-dihydroisoquinolin-3-yl)phenyl carbonate], the 50% inhibitory concentration (IC50) on PP1α (PP1CA) lay within 10 to 24 µM. The GI50 with HMEC cells is 1 to 25 µM. In the data set on bovine brain tubulin, the Tubulin polymerization inhibition result was “— ((−) signifies that the molecule induces little or no tubulin assembly inhibition in vitro: 0+ or − −5% of the DMSO control.)”. For the same molecule, in the data set with HeLa cells, the “Effect on Hela at 25 μM” value is “***”.

The term melting point denotes the temperature of the solid-liquid transition. One may read the IC50 as the concentration that inhibits the measured activity by half. A word on the GI50: it is the concentration that inhibits growth by half.
